Where a SMILES comes first, the peptide text is derived from it. Bridges are numbered along the chain shown (N, C = ends). [ ]: non-standard residue; d: D form. The star is where a group is joined. ξ: configuration not given here. hPhe(3-Cl-4-CF3) = N[C@@H](CCc1ccc(C(F)(F)F)c(Cl)c1)C(=O)O; NPrPhe(4-CF3) = CCCN[C@@H](Cc1ccc(C(F)(F)F)cc1)C(=O)O; NMeGly(cPent) = CN[C@H](C(=O)O)C1CCCC1; NMeL = CN[C@@H](CC(C)C)C(=O)O; ξNMeD = CNC(CC(=O)O)C(=O)O; Morpholide = C1CN(*)CCO1; Ac5c = NC1(C(=O)O)CCCC1; ξP = O=C(O)C1CCCN1; Sar = CNCC(=O)O
Experiments:
[1] = biological target: GDP-bound NRAS wild-type protein (Homo sapiens, UniProt P01111); assay: Binding to NRAS by surface plasmon resonance (SPR), Single Cycle Kinetics; conditions: SPR; for NRAS/KRAS (ratio of KD value with respect to NRAS to KD value with respect to KRAS): GDP-bound NRAS wild-type vs GDP-bound KRAS wild-type
GDP-bound NRAS wild-type protein, sequence (P01111 whole entry): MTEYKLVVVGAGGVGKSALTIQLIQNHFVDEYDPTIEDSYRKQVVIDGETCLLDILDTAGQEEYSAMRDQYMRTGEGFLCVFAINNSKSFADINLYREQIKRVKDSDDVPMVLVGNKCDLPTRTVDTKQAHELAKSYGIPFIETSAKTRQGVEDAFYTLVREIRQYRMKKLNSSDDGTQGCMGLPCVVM

[2] = biological target: GDP-bound HRAS wild-type protein (Homo sapiens, UniProt P01112); assay: Binding to HRAS by surface plasmon resonance (SPR), Single Cycle Kinetics; conditions: SPR; for HRAS/KRAS (ratio of KD value with respect to HRAS to KD value with respect to KRAS): GDP-bound HRAS wild-type vs GDP-bound KRAS wild-type
GDP-bound HRAS wild-type protein, sequence (P01112 whole entry): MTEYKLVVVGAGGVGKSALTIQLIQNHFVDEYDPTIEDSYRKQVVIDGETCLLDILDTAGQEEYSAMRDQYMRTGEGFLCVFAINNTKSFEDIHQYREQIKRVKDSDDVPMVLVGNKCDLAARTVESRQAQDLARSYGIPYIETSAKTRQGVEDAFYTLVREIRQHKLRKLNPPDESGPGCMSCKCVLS

SMILES: CCC[C@@H]1C[C@H]2C(=O)NC3(CCCC3)C(=O)N(C)[C@@H](C3CCCC3)C(=O)N(C)[C@H](C(=O)N(C)C)CC(=O)N(C)[C@@H](CC)C(=O)N[C@@H]([C@@H](C)CC)C(=O)N(C)CC(=O)N(C)[C@H]3C/C=C\CCN(C3=O)[C@@H](Cc3ccc(C)cc3)C(=O)N(C)CC(=O)N[C@@H](CCc3cc(F)c(C(F)(F)F)c(F)c3)C(=O)N2C1 [PP2227]
- NRAS/KRAS (ratio of KD value with respect to NRAS to KD value with respect to KRAS) [1]: A (a compound having 10 or more and less than 20 is denoted as A)
- HRAS/KRAS (ratio of KD value with respect to HRAS to KD value with respect to KRAS) [2]: A (a compound having 10 or more and less than 20 is denoted as A)

SMILES: C#CC[C@H]1C(=O)N[C@@H]([C@@H](C)CC)C(=O)N(C)CC(=O)N(C)[C@H]2C/C=C\CCN(C2=O)[C@@H](Cc2ccc(C)cc2)C(=O)N(C)CC(=O)N[C@@H](CCc2ccc(C(F)(F)F)c(Cl)c2)C(=O)N2CC3(CC3)C[C@H]2C(=O)NC2(CC(C)(C)C2)C(=O)N(C)[C@@H](C2CCCC2)C(=O)N(C)[C@H](C(=O)N(C)C)CC(=O)N1C [PP2982]
- NRAS/KRAS (ratio of KD value with respect to GDP-bound NRAS wild-type protein to KD value with respect to KRAS) ([1]; KD ratio NRAS/KRAS, GDP-bound wild-type proteins): A (a compound having 10 or more and less than 20 is denoted as A)
- HRAS/KRAS (ratio of KD value with respect to GDP-bound HRAS wild-type protein to KD value with respect to KRAS) ([2]; KD ratio HRAS/KRAS, GDP-bound wild-type proteins): A (a compound having 10 or more and less than 20 is denoted as A)

SMILES: CCO[C@@H]1C[C@H]2C(=O)NC3(CCC3)C(=O)N(C)[C@@H](C3CCCC3)C(=O)N(C)[C@H](C(=O)N(C)CCOC)CC(=O)N(C)[C@@H](CC3CC3)C(=O)N[C@@H]([C@@H](C)CC)C(=O)N(C)CC(=O)N(C)[C@H]3C/C=C\CCN(C3=O)[C@@H](Cc3ccc(C(F)(F)F)cc3)C(=O)N(C)CC(=O)N[C@@H](CCc3cc(F)c(C(F)(F)F)c(F)c3)C(=O)N2C1 [PP1318]
- NRAS/KRAS (ratio of KD value for GDP-bound NRAS wild-type protein to KD value for KRAS) ([1]; KD ratio class): A (a compound having 10 or more and less than 20 is denoted as A)
- HRAS/KRAS (ratio of KD value for GDP-bound HRAS wild-type protein to KD value for KRAS) ([2]; KD ratio class): A (a compound having 10 or more and less than 20 is denoted as A)

SMILES: CCCN1C(=O)CN(C)C(=O)CN(C)C(=O)[C@H]([C@@H](C)CC)NC(=O)[C@H](CC(C)C)N(C)C(=O)CC(C(=O)N2CCOCC2)N(C)C(=O)[C@H](C2CCCC2)N(C)C(=O)C2(CCCC2)NC(=O)[C@@H]2CCCN2C(=O)[C@H](CCc2ccc(C(F)(F)F)c(Cl)c2)NC(=O)C2CCCN2C(=O)[C@@H]1Cc1ccc(C(F)(F)F)cc1 (some centres unmarked) [PP0149] ([NMeL]I[Sar][Sar][NPrPhe(4-CF3)][ξP][hPhe(3-Cl-4-CF3)]P[Ac5c][NMeGly(cPent)][ξNMeD]-Morpholide; lactam N-11)
- NRAS/KRAS (ratio of KD for GDP-bound NRAS wild-type to KD for KRAS) ([1]; KD ratio NRAS/KRAS): C (A compound having a KD ratio of 0.1 or more and less than 3 is denoted as C)
- HRAS/KRAS (ratio of KD for GDP-bound HRAS wild-type to KD for KRAS) ([2]; KD ratio HRAS/KRAS): B (a compound having 3 or more and less than 10 is denoted as B)

SMILES: CC[C@H](C)[C@@H]1NC(=O)[C@@H]2CCCCCN2C(=O)C[C@@H](C(=O)N2CCOCC2)N(C)C(=O)[C@H](C2CCCC2)N(C)C(=O)C2(CCCC2)NC(=O)[C@@H]2CCCN2C(=O)[C@H](CCc2cc(F)c(C(F)(F)F)c(F)c2)NC(=O)CN(C)C(=O)[C@H](Cc2ccc(C(F)(F)F)cc2)N2CCCC[C@@H](C2=O)N(C)C(=O)CN(C)C1=O [PP0595]
- NRAS/KRAS (ratio of KD value with respect to GDP-bound NRAS wild-type protein to KD value with respect to KRAS) ([1]; KD ratio NRAS/KRAS): C (A compound having a KD ratio of 0.1 or more and less than 3 is denoted as C)
- HRAS/KRAS (ratio of KD value with respect to GDP-bound HRAS wild-type protein to KD value with respect to KRAS) ([2]; KD ratio HRAS/KRAS): B (a compound having 3 or more and less than 10 is denoted as B)

SMILES: CCO[C@@H]1C[C@H]2C(=O)NC3(CCC3)C(=O)N(C)[C@@H](C3CCCC3)C(=O)N(C)[C@H](C(=O)N(C)C)CC(=O)N(CC)[C@@H](CC(C)C)C(=O)N[C@@H]([C@@H](C)CC)C(=O)N(C)CC(=O)N(C)[C@H]3CC(C)=C(C)CN(C3=O)[C@@H](Cc3ccc(C(F)(F)F)cc3)C(=O)N(C)CC(=O)N[C@@H](CCc3cc(F)c(C(F)(F)F)c(F)c3)C(=O)N2C1 [PP1051]
- NRAS/KRAS (ratio of KD value with respect to NRAS to KD value with respect to KRAS) ([1]; KD ratio): C (A compound having a KD ratio of 0.1 or more and less than 3 is denoted as C)
- HRAS/KRAS (ratio of KD value with respect to HRAS to KD value with respect to KRAS) ([2]; KD ratio): C (A compound having a KD ratio of 0.1 or more and less than 3 is denoted as C)

SMILES: CCC[C@H]1C(=O)N[C@@H]([C@@H](C)CC)C(=O)N2CCC[C@H]2C(=O)N(C)[C@H]2C/C=C\CCN(C2=O)[C@@H](Cc2ccc(C)cc2)C(=O)N(C)CC(=O)N[C@@H](CCc2ccc(C(F)(F)F)c(OC)c2)C(=O)N2C[C@@H](C)C[C@H]2C(=O)N(C)C2(CCC2)C(=O)N(C)[C@@H](C2CCCC2)C(=O)N(C)[C@H](C(=O)N(C)C)CC(=O)N1C [PP2368]
- NRAS/KRAS (ratio of KD value with respect to NRAS to KD value with respect to KRAS) [1]: A (a compound having 10 or more and less than 20 is denoted as A)
- HRAS/KRAS (ratio of KD value with respect to HRAS to KD value with respect to KRAS) [2]: A (a compound having 10 or more and less than 20 is denoted as A)

From US20250230193A1, “CYCLIC COMPOUND HAVING SELECTIVE KRAS INHIBITORY EFFECT ON HRAS AND NRAS” (CHUGAI SEIYAKU KABUSHIKI KAISHA, priority 2022, published 2025)
